# Results: PMC5402304, “Oxoaporphine Metal Complexes (Co^II, Ni^II, Zn^II) with High Antitumor Activity by Inducing Mitochondria-Mediated Apoptosis and S-phase Arrest in HepG2” (Scientific Reports, 2017)
# “And” between values parts separate entries of the source, which are not always exact repeats. Identical values can stand only once.
# Tests used:
# HepG2 = experiment: MTT cytotoxicity assay, HepG2; assay type: cell-based, human
# Protocol: (§1) The in vitro cytotoxicity of OD, 1–3 and the corresponding metal salts were determined by MTT assay towards a panel of human tumor cells including HepG2, T-24, BEL-7404, MGC80-3, SK-OV-3/DDP and normal HL-7702 cells. As the positive control, cisplatin was dissolved at a concentration of 1 mM in 0.154 M NaCl[32].
# (§2) The human tumor cell lines (BEL-7404, HepG2, MGC80–3, T-24, SK-OV-3/DDP and HeLa cells) and the human normal liver cell line HL-7702 were obtained from Shanghai Cell Bank in Chinese Academy of Sciences. Cells were cultured in Dulbecco’s modified Eagle’s medium (DMEM) or RPMI-1640 medium, which supplemented with 10% fetal bovine serum (FBS) and 100 U/mL penicillin and streptomycin. Cells were cultured at 37 °C in a humidified atmosphere with 5% CO2/95% air. Tested compounds (2.0 mM) were prepared as DMSO stock solution before they were diluted to working concentrations by PBS buffer (containing 0.5% DMSO), while cisplatin dissolved in 0.9% sodium chloride solution was used as positive controls.
# (§3) Cells in their logarithmic phase were seeded in 96-well plates with 5.5 × 10^3/180 μL per well for 24 h. Then 20 μL of compounds at various concentrations were added to each well to achieve final concentrations of 1.25, 2.5, 5.0, 10.0, and 20.0 μM. All the cells were incubated with test compounds for another 48 h before MTT assay. Control wells contained media with 0.5% DMSO. After 48 h of cultivation, 10 μL of MTT (5 mg/mL in PBS) was added to each well, and cells were incubated at 37 °C for 6 h. The contents in the wells were pipetted out carefully, and the formazan crystals formed were dissolved in 100 μL of DMSO, and the absorbance was measured by enzyme labeling instrument with 490 nm/630 nm double wavelength measurement. The IC50 value was defined as a drug concentration killing 50% cells in comparison with untreated controls, which was calculated by the Bliss method (n = 5). All tests were repeated in at least three independent trials.
# BEL-7404 = experiment: MTT cytotoxicity assay, BEL-7404; assay type: cell-based, human
# Protocol: as §1, §2, §3
# MGC80-3 = experiment: MTT cytotoxicity assay, MGC80-3; assay type: cell-based, human
# Protocol: as §1, §2, §3
# HL-7702 = experiment: MTT cytotoxicity assay, normal liver cells HL-7702; assay type: cell-based, human; conditions: 48 h
# Protocol: as §1, §2, §3
# [1] = Solution stability by HPLC; assay type: physicochemical; conditions: TBS; 0 and 24 h; mobile phase methanol/H2O 80/20
# Protocol: The stability of 1–3 in Tris-HCl buffer solution (TBS, pH = 7.35, containing 1% DMSO) for 0, 12 and 48 h were primarily analyzed by means of UV-Vis spectroscopy, as shown in Figure S1.
# The stability of 1–3 under physiological conditions ([…] buffer solution with pH value of 7.35, containing 1% DMSO), was carried out using UV-vis spectroscopy and HPLC. 1–3 were dissolved in DMSO at 1 × 10^−3 M, and then diluted by buffer solution. The UV-vis absorbance of these complexes at 0 h, 12 h and 48 h were measured, respectively. The solution stability of 3 was further confirmed by HPLC experiments. 3 in aqueous solution at 1.0 mg · mL^−1 was analyzed by HPLC at 0 h and 24 h respectively, with reversed-phase C18 column and methol/H2O (80:20) as mobile phase.
# caspase-3 = experiment: Caspase-3 activation by flow cytometry (CaspGLOW); assay type: cell-based, human; conditions: HepG2, 1.0 μM, 24 h; control 4.2%
# Protocol: (§4) Caspase family is closely related to the cell apoptosis via the mitochondrial pathway, especially caspases-3, -8 and -9. To better understand the antitumor mechanisms, it needs to confirm whether caspase-3, -8 and -9 are activated when the tumor cells are treated with 1–3.
# (§5) The measurement of caspase-3, -8 and -9’s activities was performed by CaspGLOW fluorescein active caspase-3, -8 and -9 staining kit. HepG2 cells were treated with 1 μM 1–3 for 24 h, harvested at a density of 1 × 10^6 cells/mL, and then suspended in 300 μL volume with PBS. To the suspension, 1 μL of caspase-3 inhibitor (FITC-DEVD-FMK), caspase-8 inhibitor (FITC-IETD-FMK) or caspase-9 inhibitor (FITC-LEHD-FMK) was consequently added and incubated for 1 h at 37 °C in 5% CO2 incubator. The cells were then examined by a FACSAria II flow cytometer equipped with a 488 nm argon laser. The results were represented as the percent change on the activity compared with the control.
# caspase-8 = experiment: Caspase-8 activation by flow cytometry (CaspGLOW); assay type: cell-based, human; conditions: HepG2, 1.0 μM, 24 h; control 1.8%
# Protocol: as §4, §5
# caspase-9 = experiment: Caspase-9 activation by flow cytometry (CaspGLOW); assay type: cell-based, human; conditions: HepG2, 1.0 μM, 24 h; control 1.9%
# Protocol: as §4, §5
# HepG2 xenograft = HepG2 xenograft nude mice model, tumor growth inhibition; assay type: in vivo, BALB/c nude mice
# Protocol: The mice were randomized into control group, 3-treated groups and positive control group (n = 6). Once the tumor had grown to an average volume of about 100 mm^3, two group of nude mice were injected intraperitoneally (ip) of 3 at a high dose (6.0 mg/kg) and a low (3.0 mg/kg) dose daily for 20 days, respectively. Cisplatin was used as positive control injected at 2.0 mg/kg every two days, while control group received solvents only.
# BALB/c nude mice (male, 17–20 g, 5–6 weeks old) were supplied by Guangxi Medical University Laboratory Animal Centre (Guangxi, China, approval no. SCXK 2014–0002 and SYXK 2014–0003). All of the experimental procedures were carried out according to the NIH Guidelines for the Care and Use of Laboratory Animals. Animal experiments were approved by the Animal Care and Use Committee of Guangxi Medical University. Animal were housed at IVC system (individual ventilated caging) with conditions of constant photoperiod (12 h light/12 h dark at 25−28 °C and 45−65% humidity). The xenograft tumor model was established in the same way as we reported before[30]. The maximum solubility of 3 in DMSO/saline solvent (v/v, 5/100) with administration volume 0.8 mL/20 g was used as the high dose (6.0 mg/kg) group (n = 6). Meanwhile low dose group mice got 3.0 mg/kg, intraperitoneal injection every day, and the control group received corresponding solvent. The positive control group was administered with cisplatin at 2.0 mg/kg every two days by intraperitoneal injection (cisplatin dissolved in saline).
# The tumor volumes and body weight were measured every 3 days, and tumor size was calculated as volume = (w^2l)/2, where w is the width and l is the length in mm of tumor[70]. On day 21, the mice were sacrificed, and the tumor tissue was dissected out and weighted. The in vivo antitumor activity is evaluated by two indicators[71][72]: the tumor relative increment rate (T/C = TRTV/CRTV × 100%) and tumor weight inhibition rate [IR = (Wc − Wt)/Wc × 100%,], where TRTV and CRTV were the RTV of treated group and control group, respectively (RTV: relative tumor volume, RTV = Vt /V0); Wt and Wc are the average tumor weight of complex-treated and vehicle controlled group, respectively.
substance,measurement,setting,value
[Zn(OD)2(H2O)2] (ClO4)2 [Complex 3],inhibitive ratio,"HepG2; HepG2, 20 μmol/L, 48 h",89.58±1.22%
same,IC50,"HepG2; HepG2, 48 h, MTT",0.39 ± 0.03 µM
same,inhibitive ratio,"BEL-7404; BEL-7404, 20 μmol/L, 48 h",61.00±0.19%
same,IC50,"BEL-7404; BEL-7404, 48 h, MTT",12.6 ± 0.45 µM
same,inhibitive ratio,"MGC80-3; MGC80-3, 20 μmol/L, 48 h",67.30±0.21%
same,IC50,"MGC80-3; MGC80-3, 48 h, MTT",4.31 ± 0.31 µM
same,inhibitive ratio,"HL-7702; HL-7702, 20 μmol/L",59.26±0.15%
same,IC50,"HL-7702; HL-7702 normal liver cells, MTT",7.13 ± 0.46 µM
same,stability in solution (HPLC chromatograms),[1],no obvious changes of HPLC chromatograms
same,proportion of activated caspase-3,caspase-3,36.9% and 36.5%
same,proportion of activated caspase-8,caspase-8,41.5%
same,proportion of activated caspase-9,caspase-9,32.6%
same,IR (tumor weight inhibition rate),HepG2 xenograft; 3.0 mg/kg ip daily for 20 days,26.4%
same,T/C (tumor relative increment rate),HepG2 xenograft; 3.0 mg/kg ip daily for 20 days,75.49%
same,IR (tumor weight inhibition rate),HepG2 xenograft; 6.0 mg/kg ip daily for 20 days,32.8%
same,T/C (tumor relative increment rate),HepG2 xenograft; 6.0 mg/kg ip daily for 20 days,55.57%
